Several values for one entry are separate records, joined by “and”; a condition that tells them apart may be missing. Equal entries are not always repeated. Where two headings read alike, the source gives them in different places.
Experiments:
CDK12–cyclin K and DDB1 = target: T1, CDK12–cyclin K and DDB1 (Homo sapiens, UniProt Q16531+Q9NYV4, K965R); test: TR-FRET ternary complex formation assay (compound titration); type: binding
T1 construct: His6–CDK12 (a.a. 713–1,052); full-length or beta-propeller B domain deletion (ΔBPB: a.a. 396–705 deleted) constructs of His6–DDB1ΔBPB, StrepII–Avi–DDB1, or His6–Spy–DDB1; made in house; host or cells: Trichoplusia ni High Five insect cells (baculovirus)
In short: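 Signal was the ratio of 520 nm to 490 nm fluorescence, measured after a 70 μs delay that reduced background.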

[1] = tested on: cyclin K–eGFP degradation reporter; test: Cyclin K reporter stability analysis (dual-color cyclin K–eGFP reporter); type: cell-based, human; conditions: source data sheet correlations; read-out: DC50
In short: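 Readout was the eGFP-to-mCherry geometric-mean ratio by flow cytometry, normalized to three DMSO controls, after 5 h drug exposure. Cells used were HEK293T–Cas9 expressing the dual-colour cyclin K–eGFP degradation reporter.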

HEK293T cells = test: Drug sensitivity assay (CellTiter-Glo viability) with or without MLN4924 pretreatment; type: cell-based, human; conditions: Supplementary Table 2
In short: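 HEK293T–Cas9, 0.15 × 10^6 ml^−1; pretreat DMSO vs 100 nM MLN4924; drugs dispensed after 2 h; 3 d exposure; CellTiter-Glo; viability vs DMSO control.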

CDK12–cyclin K = CDK12–cyclin K (Homo sapiens, UniProt Q9NYV4); test: Lanthascreen kinase binding assay, CDK12; conditions: for Lanthascreen raw signal, sheet CDK12: series r37, duplicates
Procedure: (§1) Lanthascreen experiments were performed using commercially available reagents (Thermo Fisher) and according to the manufacturer’s instructions.

CDK9–cyclin T = target: T2, CDK9–cyclin T (Homo sapiens, UniProt P50750); test: Lanthascreen kinase binding assay, CDK9; conditions: for Lanthascreen TR-FRET signal (raw ratio), sheet CDK9: third titration set (r25), duplicates
T2 construct: purchased Thermo Fisher
Procedure: as §1

CDK2–cyclin A = target: T3, CDK2–cyclin A (Homo sapiens, UniProt P24941); test: Lanthascreen kinase binding assay, CDK2; conditions: for Lanthascreen signal, sheet CDK2: raw replicates, experiment r36-r46
T3 construct: purchased Thermo Fisher
Procedure: as §1

Chain of CDK12–cyclin K (Q9NYV4 713-1052): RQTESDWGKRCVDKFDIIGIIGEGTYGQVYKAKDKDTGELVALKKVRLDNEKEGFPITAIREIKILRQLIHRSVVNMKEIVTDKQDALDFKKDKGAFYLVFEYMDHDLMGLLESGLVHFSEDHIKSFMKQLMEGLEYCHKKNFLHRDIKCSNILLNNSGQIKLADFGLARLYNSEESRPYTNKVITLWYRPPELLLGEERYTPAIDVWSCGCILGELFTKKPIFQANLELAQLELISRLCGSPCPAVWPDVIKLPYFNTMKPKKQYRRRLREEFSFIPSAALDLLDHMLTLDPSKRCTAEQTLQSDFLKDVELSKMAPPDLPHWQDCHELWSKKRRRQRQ
Chain of CDK12–cyclin K (O75909 1-267 partner limits assumed): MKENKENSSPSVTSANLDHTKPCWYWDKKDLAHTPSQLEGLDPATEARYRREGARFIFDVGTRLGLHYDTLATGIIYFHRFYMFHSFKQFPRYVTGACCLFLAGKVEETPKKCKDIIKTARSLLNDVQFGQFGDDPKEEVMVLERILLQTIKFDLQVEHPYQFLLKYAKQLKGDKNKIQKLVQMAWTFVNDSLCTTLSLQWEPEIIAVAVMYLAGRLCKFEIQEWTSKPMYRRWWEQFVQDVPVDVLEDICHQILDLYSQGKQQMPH
T1 sequence (Q9NYV4 713-1052 K965R): as the sequence (Q9NYV4 713-1052) above, with K253R counted along it
T1 sequence (O75909 1-267 partner): as the sequence (O75909 1-267 partner limits assumed) above
T1 sequence (Q16531 whole entry): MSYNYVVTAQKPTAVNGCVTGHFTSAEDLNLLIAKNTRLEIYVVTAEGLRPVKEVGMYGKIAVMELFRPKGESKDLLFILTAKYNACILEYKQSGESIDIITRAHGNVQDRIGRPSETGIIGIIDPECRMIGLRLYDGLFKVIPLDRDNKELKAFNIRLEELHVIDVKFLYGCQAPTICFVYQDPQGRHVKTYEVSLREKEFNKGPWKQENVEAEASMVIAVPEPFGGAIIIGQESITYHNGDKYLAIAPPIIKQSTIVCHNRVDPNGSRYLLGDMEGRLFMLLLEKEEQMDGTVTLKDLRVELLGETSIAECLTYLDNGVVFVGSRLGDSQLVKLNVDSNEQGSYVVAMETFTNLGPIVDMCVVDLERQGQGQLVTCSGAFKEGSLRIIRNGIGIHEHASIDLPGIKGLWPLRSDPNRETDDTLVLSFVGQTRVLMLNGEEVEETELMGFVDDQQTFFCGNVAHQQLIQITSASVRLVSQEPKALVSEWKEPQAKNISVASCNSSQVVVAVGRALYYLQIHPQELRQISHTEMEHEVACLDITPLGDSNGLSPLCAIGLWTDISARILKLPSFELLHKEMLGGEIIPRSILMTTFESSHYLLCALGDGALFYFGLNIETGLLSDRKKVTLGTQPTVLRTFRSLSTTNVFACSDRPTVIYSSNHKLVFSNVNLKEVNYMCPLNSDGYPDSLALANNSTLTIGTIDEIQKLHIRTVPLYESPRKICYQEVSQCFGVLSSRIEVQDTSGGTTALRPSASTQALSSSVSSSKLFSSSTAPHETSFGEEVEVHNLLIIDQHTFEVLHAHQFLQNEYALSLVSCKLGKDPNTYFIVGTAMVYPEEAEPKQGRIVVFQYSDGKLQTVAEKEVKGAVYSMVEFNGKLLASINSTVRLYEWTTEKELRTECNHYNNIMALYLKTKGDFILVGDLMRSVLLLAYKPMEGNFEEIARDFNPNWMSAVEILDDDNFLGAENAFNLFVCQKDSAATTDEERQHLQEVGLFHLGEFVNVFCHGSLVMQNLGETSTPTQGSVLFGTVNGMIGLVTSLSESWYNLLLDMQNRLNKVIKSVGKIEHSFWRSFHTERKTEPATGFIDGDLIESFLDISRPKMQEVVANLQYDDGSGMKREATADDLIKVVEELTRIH
T2 sequence (P50750 whole entry): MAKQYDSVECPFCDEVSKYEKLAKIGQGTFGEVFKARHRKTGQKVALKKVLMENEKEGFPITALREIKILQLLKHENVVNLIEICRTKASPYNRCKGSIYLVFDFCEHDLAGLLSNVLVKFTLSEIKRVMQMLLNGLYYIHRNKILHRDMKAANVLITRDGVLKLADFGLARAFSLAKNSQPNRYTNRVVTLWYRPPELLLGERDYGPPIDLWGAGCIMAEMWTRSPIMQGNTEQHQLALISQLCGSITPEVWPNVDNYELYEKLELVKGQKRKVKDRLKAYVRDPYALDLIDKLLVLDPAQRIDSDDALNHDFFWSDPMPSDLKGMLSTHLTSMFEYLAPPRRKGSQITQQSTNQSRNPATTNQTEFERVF
T2 sequence (O60563 whole entry partner): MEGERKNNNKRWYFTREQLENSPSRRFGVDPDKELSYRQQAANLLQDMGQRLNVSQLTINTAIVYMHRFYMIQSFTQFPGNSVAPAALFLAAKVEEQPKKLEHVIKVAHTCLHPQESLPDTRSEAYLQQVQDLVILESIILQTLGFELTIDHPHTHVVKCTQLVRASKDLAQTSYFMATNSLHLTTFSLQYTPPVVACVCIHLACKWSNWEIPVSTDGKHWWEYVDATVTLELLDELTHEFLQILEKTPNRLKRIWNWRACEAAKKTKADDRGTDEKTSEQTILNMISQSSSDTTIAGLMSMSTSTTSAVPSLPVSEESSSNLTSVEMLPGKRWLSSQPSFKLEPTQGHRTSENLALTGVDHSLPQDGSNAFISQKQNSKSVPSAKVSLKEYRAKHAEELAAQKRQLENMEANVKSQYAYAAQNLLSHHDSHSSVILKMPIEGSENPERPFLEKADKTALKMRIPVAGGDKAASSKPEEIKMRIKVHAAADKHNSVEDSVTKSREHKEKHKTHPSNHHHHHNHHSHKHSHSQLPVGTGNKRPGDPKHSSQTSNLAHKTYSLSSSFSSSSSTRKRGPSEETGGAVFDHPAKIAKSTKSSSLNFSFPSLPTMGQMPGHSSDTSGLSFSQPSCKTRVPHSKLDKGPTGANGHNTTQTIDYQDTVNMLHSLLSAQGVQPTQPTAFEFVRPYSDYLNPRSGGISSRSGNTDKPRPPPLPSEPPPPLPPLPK

With `CC(C)n1cnc2c(NCc3ccc(-c4ccccn4)cc3)nc(N3CCOCC3)nc21` [DS19] the “TR-FRET signal at compound concentration 0.468 nM” value (CDK12–cyclin K and DDB1; raw replicate titration data) was 0.2796 and 0.2825 and 0.2274 and 0.2285, the “TR-FRET signal at compound concentration 0.468 nM” value (CDK12–cyclin K and DDB1; raw titration data) was 0.2796 and 0.2825 and 0.2274 and 0.2285 and the “TR-FRET signal at compound concentration 2.16 nM” value (CDK12–cyclin K and DDB1; raw replicate titration data) was 0.4207 and 0.4231 and 0.3525 and 0.3569. For the same compound, the “TR-FRET signal at compound concentration 2.16 nM” value (CDK12–cyclin K and DDB1; raw titration data) was 0.4207 and 0.4231 and 0.3525 and 0.3569, the “TR-FRET signal at compound concentration 3.6 nM” value (CDK12–cyclin K and DDB1; raw replicate titration data) was 0.7048 and 0.756 and 0.6232 and 0.6327 and the “TR-FRET signal at compound concentration 3.6 nM” value (CDK12–cyclin K and DDB1; raw titration data) was 0.7048 and 0.756 and 0.6232 and 0.6327. The “TR-FRET signal at compound concentration 7.92001 nM” value (CDK12–cyclin K and DDB1; raw replicate titration data) was 1.442 and 1.475 and 1.209 and 1.266, the “TR-FRET signal at compound concentration 7.92001 nM” value (CDK12–cyclin K and DDB1; raw titration data) was 1.442 and 1.475 and 1.209 and 1.266 and the “TR-FRET signal at compound concentration 15.84 nM” value (CDK12–cyclin K and DDB1; raw replicate titration data) was 2.559 and 2.574 and 2.155 and 2.284. For the same compound, the “TR-FRET signal at compound concentration 15.84 nM” value (CDK12–cyclin K and DDB1; raw titration data) was 2.559 and 2.574 and 2.155 and 2.284, the “TR-FRET signal at compound concentration 30.96 nM” value (CDK12–cyclin K and DDB1; raw replicate titration data) was 3.476 and 3.44 and 3.283 and 3.355 and the “TR-FRET signal at compound concentration 30.96 nM” value (CDK12–cyclin K and DDB1; raw titration data) was 3.476 and 3.44 and 3.283 and 3.355. The “TR-FRET signal at compound concentration 62.6401 nM” value (CDK12–cyclin K and DDB1; raw replicate titration data) was 3.895 and 3.93 and 3.8348 and 3.842, the “TR-FRET signal at compound concentration 62.6401 nM” value (CDK12–cyclin K and DDB1; raw titration data) was 3.895 and 3.93 and 3.8348 and 3.842 and the “TR-FRET signal at compound concentration 125.28 nM” value (CDK12–cyclin K and DDB1; raw replicate titration data) was 4.03 and 4.166 and 4.089 and 4.0346. For the same compound, the “TR-FRET signal at compound concentration 125.28 nM” value (CDK12–cyclin K and DDB1; raw titration data) was 4.03 and 4.166 and 4.089 and 4.0346, the “TR-FRET signal at compound concentration 244.8 nM” value (CDK12–cyclin K and DDB1; raw replicate titration data) was 3.953 and 4.0607 and 4.092 and 4.114 and the “TR-FRET signal at compound concentration 244.8 nM” value (CDK12–cyclin K and DDB1; raw titration data) was 3.953 and 4.0607 and 4.092 and 4.114. The “TR-FRET signal at compound concentration 993.601 nM” value (CDK12–cyclin K and DDB1; raw replicate titration data) was 4.102 and 4.235 and 4.304 and 4.258, the “TR-FRET signal at compound concentration 993.601 nM” value (CDK12–cyclin K and DDB1; raw titration data) was 4.102 and 4.235 and 4.304 and 4.258 and the “TR-FRET signal at compound concentration 2001.6 nM” value (CDK12–cyclin K and DDB1; raw replicate titration data) was 4.005 and 4.144 and 4.249 and 4.271. For the same compound, the “TR-FRET signal at compound concentration 2001.6 nM” value (CDK12–cyclin K and DDB1; raw titration data) was 4.005 and 4.144 and 4.249 and 4.271, the EC50 (CDK12–cyclin K and DDB1; in vitro complex formation, 50 nM CDK12–cyclin K, 100 nM DDB1, text and figures, read-out: TR-FRET EC50) was 14 ± 0.3 nM and the EC50 (CDK12–cyclin K and DDB1; sheet MOESM7, read-out: log TR-FRET EC50 (converted)) was 14 nM. The DC50 [1] was 62 nM, the EC50 (HEK293T cells; Homo sapiens, HEK-293T, HEK293T viability, 72 h, compound alone, read-out: Cellular assays EC50) was 203 nM and the Toxicity rescue (HEK293T cells; MLN4924-mediated cytotoxicity rescue, 10 µM used where n.d.) was 300%. The IC50 (CDK12–cyclin K; Supplementary Table 2, read-out: Lanthascreen IC50 [nM] CDK12) was 163 nM, the “Lanthascreen raw signal, sheet CDK12” value (CDK12–cyclin K; compound 0.038147 nM) was 0.01386 and 0.01388 and the “Lanthascreen raw signal, sheet CDK12” value (CDK12–cyclin K; compound 0.152588 nM) was 0.01386 and 0.01359. For the same compound, the “Lanthascreen raw signal, sheet CDK12” value (CDK12–cyclin K; compound 0.610352 nM) was 0.01429 and 0.01468, the “Lanthascreen raw signal, sheet CDK12” value (CDK12–cyclin K; compound 9.76563 nM) was 0.01424 and 0.01408 and the “Lanthascreen raw signal, sheet CDK12” value (CDK12–cyclin K; compound 39.0625 nM) was 0.0128 and 0.01286. The “Lanthascreen raw signal, sheet CDK12” value (CDK12–cyclin K; compound 156.25 nM) was 0.01155 and 0.01121, the “Lanthascreen raw signal, sheet CDK12” value (CDK12–cyclin K; compound 625 nM) was 0.01099 and 0.009814 and the “Lanthascreen raw signal, sheet CDK12” value (CDK12–cyclin K; compound 2500 nM) was 0.009116 and 0.009896. For the same compound, the “Lanthascreen raw signal, sheet CDK12” value (CDK12–cyclin K; compound 10000 nM) was 0.008961 and 0.008941, the IC50 (CDK9–cyclin T; Supplementary Table 2, read-out: Lanthascreen IC50 [nM] CDK9) was 143 nM and the “Lanthascreen TR-FRET signal (raw ratio), sheet CDK9” value (CDK9–cyclin T; compound 0.038147 nM) was 0.02142 and 0.0184. For the same compound, the “Lanthascreen TR-FRET signal (raw ratio), sheet CDK9” value (CDK9–cyclin T; compound 0.152588 nM) was 0.02078 and 0.0198, the “Lanthascreen TR-FRET signal (raw ratio), sheet CDK9” value (CDK9–cyclin T; compound 0.610352 nM) was 0.02132 and 0.01977 and the “Lanthascreen TR-FRET signal (raw ratio), sheet CDK9” value (CDK9–cyclin T; compound 9.76563 nM) was 0.02157 and 0.01927. The “Lanthascreen TR-FRET signal (raw ratio), sheet CDK9” value (CDK9–cyclin T; compound 39.0625 nM) was 0.01848 and 0.01637, the “Lanthascreen TR-FRET signal (raw ratio), sheet CDK9” value (CDK9–cyclin T; compound 156.25 nM) was 0.01444 and 0.01311 and the “Lanthascreen TR-FRET signal (raw ratio), sheet CDK9” value (CDK9–cyclin T; compound 625 nM) was 0.01104 and 0.009432. For the same compound, the “Lanthascreen TR-FRET signal (raw ratio), sheet CDK9” value (CDK9–cyclin T; compound 2500 nM) was 0.009751 and 0.009192, the “Lanthascreen TR-FRET signal (raw ratio), sheet CDK9” value (CDK9–cyclin T; compound 10000 nM) was 0.008375 and 0.006377 and the “Lanthascreen signal, sheet CDK2” value (CDK2–cyclin A; Compound 0.038147 nM) was 0.0135 and 0.01393. For the same compound, the “Lanthascreen signal, sheet CDK2” value (CDK2–cyclin A; Compound 0.152588 nM) was 0.0137 and 0.01436, the “Lanthascreen signal, sheet CDK2” value (CDK2–cyclin A; Compound 0.610352 nM) was 0.01422 and 0.01354 and the “Lanthascreen signal, sheet CDK2” value (CDK2–cyclin A; Compound 9.76563 nM) was 0.01407 and 0.01385. For the same compound, the “Lanthascreen signal, sheet CDK2” value (CDK2–cyclin A; Compound 39.0625 nM) was 0.01288 and 0.01319, the “Lanthascreen signal, sheet CDK2” value (CDK2–cyclin A; Compound 156.25 nM) was 0.01128 and 0.01245 and the “Lanthascreen signal, sheet CDK2” value (CDK2–cyclin A; Compound 625 nM) was 0.01025 and 0.01024. The “Lanthascreen signal, sheet CDK2” value (CDK2–cyclin A; Compound 2500 nM) was 0.009848 and 0.009236, the “Lanthascreen signal, sheet CDK2” value (CDK2–cyclin A; Compound 10000 nM) was 0.00863 and 0.008753 and the IC50 (CDK2–cyclin A; Supplementary Table 2, read-out: Lanthascreen IC50 [nM] CDK2) was 239 nM.

— article PMC10746543, “Design principles for cyclin K molecular glue degraders” (Nature Chemical Biology, 2023)
